COc1ccc(CC(=O)O)cc1
solubility (mole fraction)
Conditions | 283.15 K | 288.15 K | 293.15 K | 298.15 K | 303.15 K | 308.15 K | 313.15 K | 318.15 K | 323.15 K
in acetonitrile | 0.0423 | 0.0499 | 0.0587 | 0.0687 | 0.0803 | 0.0941 | 0.112 | 0.135 | 0.166
in anisole | 0.0323 | 0.0425 | 0.0519 | 0.0626 | 0.0737 | 0.0858 | 0.0999 | 0.118 | 0.139
in isopropanol | 0.114 | 0.142 | 0.169 | 0.198 | 0.228 | 0.258 | 0.289 | 0.323 | 0.351
in morpholine | 0.0094 | 0.0139 | 0.0185 | 0.0239 | 0.0293 | 0.0348 | 0.0404 | 0.0459 | 0.0503
in toluene | 0.0166 | 0.0209 | 0.0264 | 0.0337 | 0.0415 | 0.0522 | 0.0641 | 0.0784 | 0.0941
in water | 0.0011 | 0.002 | 0.0031 | 0.0043 | 0.0057 | 0.0069 | 0.0079 | 0.0092 | 0.0105
